What was measured:
[1] = molecular target: T1, hFASN enzyme (full length) (Homo sapiens, UniProt P49327); test: Fatty Acid Synthase (FASN) inhibition scintillation proximity assay; format: biochemical; settings: for inhibition at 10 µM: read-out: Human FASN % inhibition @ 10 μM, 10 μM test compound; for IC50: read-out: Human FASN pIC50 (converted)
T1 construct: 10 μL hFASN enzyme (full length, 300 ng, purified in house); made in house
Method in brief: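 Read-out relies on hydrophobic ³H-palmitate product, formed from ³H-acetyl-CoA and malonyl-CoA, binding streptavidin imaging beads, measured at 610±20 nm after at least 24 h. Full-length enzyme (300 ng) in phosphate buffer pH 7.5 with DTT; eight compound concentrations, 0.01–30 μM.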

[2] = test system: A2780 ovarian cells; test: A2780 ovarian cell proliferation assay in lipid reduced medium, with palmitate (MTT); format: cell-based; settings: Homo sapiens, A2780, 96 h; read-out: pIC50 A2780 Ovarian Cell, With Palmitate (converted)
Method in brief: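 In this palmitate-supplemented format, compound dilutions (30 μM down to 0.01 μM) are added to cells in lipid-reduced serum with 25 μM palmitate, 0.2% fatty-acid-free BSA and 0.25% ethanol. After four days (96 h) MTT absorbance at 544 nm is recorded and fitted by minimum sum of squares.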

[3] = test system: A2780 ovarian cells; test: A2780 ovarian cell proliferation assay in lipid reduced medium, without palmitate (MTT); format: cell-based; settings: Homo sapiens, A2780, 96 h; read-out: pIC50 A2780 Ovarian Cell, Without Palmitate (converted)
[4] = test system: LNCaP-Vancouver prostate cells; test: In vitro LNCaP Vancouver prostate cell proliferation assay in lipid reduced medium; format: cell-based; settings: read-out: pIC50 LNCaP_Vancouver prostate cell (converted)
[5] = test system: PC-3M-Luc-C6 prostate cells; test: In vitro PC-3M-Luc-C6 prostate cell proliferation assay in lipid reduced medium; format: cell-based; settings: 96 h, read-out: pIC50 PC-3M-Luc-C6 prostate cell (converted)
[6] = molecular target: Fatty Acid Synthase Keto-reductase Domain (FASN KR) (Homo sapiens, UniProt P49327); test: Fatty Acid Synthase keto-reductase domain (FASN KR) inhibition, NADPH oxidation at 340 nm
Fatty Acid Synthase Keto-reductase Domain (FASN KR), sequence (P49327 whole entry, the tested form may be a part): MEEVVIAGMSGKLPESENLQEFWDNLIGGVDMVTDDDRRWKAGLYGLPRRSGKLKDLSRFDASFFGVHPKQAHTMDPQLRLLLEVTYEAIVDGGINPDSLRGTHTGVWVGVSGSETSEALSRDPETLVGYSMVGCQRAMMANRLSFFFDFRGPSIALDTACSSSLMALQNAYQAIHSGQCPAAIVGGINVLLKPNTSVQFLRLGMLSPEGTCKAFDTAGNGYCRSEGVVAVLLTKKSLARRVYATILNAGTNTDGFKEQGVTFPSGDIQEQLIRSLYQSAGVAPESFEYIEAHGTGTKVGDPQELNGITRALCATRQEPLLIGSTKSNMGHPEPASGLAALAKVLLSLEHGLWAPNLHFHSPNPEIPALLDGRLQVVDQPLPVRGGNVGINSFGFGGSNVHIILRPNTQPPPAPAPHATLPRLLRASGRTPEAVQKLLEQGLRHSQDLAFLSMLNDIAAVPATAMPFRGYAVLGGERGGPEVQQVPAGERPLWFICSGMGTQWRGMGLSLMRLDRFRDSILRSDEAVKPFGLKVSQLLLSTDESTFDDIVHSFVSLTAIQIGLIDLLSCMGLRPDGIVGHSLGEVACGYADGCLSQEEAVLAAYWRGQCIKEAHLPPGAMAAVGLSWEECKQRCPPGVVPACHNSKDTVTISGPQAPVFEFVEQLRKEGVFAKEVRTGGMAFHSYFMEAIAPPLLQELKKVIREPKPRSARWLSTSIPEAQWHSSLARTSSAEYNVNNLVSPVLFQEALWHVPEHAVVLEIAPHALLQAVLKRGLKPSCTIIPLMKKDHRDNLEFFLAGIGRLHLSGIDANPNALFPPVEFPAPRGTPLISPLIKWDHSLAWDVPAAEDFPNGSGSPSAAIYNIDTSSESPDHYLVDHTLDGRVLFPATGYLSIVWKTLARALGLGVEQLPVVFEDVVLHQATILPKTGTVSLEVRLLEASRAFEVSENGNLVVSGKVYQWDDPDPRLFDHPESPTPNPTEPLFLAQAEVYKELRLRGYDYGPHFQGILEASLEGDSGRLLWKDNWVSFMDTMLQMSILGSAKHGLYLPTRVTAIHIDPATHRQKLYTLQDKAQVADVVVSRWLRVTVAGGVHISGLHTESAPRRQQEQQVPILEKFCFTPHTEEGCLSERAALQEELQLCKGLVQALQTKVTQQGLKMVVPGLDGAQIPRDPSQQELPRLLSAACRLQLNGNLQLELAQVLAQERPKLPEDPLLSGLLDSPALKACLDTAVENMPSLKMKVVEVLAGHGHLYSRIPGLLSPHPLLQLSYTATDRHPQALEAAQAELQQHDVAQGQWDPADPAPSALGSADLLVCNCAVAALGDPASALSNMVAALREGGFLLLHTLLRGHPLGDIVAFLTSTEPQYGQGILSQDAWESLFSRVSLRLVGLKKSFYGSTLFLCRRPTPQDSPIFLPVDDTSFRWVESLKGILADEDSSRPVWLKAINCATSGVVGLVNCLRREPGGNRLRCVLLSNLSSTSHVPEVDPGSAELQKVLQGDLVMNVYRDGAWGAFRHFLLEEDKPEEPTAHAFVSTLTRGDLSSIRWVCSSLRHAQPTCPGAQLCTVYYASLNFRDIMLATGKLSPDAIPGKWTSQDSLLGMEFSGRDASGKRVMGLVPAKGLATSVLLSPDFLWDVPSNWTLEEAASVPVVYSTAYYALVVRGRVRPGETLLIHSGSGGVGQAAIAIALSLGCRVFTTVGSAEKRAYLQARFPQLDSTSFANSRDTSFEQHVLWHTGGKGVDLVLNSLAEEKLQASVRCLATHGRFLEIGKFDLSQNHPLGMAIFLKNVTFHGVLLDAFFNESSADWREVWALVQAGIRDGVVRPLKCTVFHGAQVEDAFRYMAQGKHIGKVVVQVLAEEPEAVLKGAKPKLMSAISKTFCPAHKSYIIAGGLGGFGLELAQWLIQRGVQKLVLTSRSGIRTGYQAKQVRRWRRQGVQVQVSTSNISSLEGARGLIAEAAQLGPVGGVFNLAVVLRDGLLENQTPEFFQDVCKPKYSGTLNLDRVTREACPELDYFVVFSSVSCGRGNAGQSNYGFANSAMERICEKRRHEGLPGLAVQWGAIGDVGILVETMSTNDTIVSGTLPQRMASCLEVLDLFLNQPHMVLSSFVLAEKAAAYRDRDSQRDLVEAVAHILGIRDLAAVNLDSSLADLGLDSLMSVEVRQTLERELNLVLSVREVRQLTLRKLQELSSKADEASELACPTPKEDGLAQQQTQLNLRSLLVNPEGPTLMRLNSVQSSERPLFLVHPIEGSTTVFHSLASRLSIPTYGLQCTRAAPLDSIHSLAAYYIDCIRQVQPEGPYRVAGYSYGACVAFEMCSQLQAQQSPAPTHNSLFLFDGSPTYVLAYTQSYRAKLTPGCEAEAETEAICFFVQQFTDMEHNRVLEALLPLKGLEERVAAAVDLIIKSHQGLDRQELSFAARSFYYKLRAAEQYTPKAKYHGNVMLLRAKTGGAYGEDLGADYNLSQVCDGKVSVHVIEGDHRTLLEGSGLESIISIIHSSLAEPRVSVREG
Procedure: After 20 minutes incubation at room temperature the plate was measured again (T2).
The decrease in absorbance was calculated as (Absorbance before incubation T1)−(Absorbance following incubation T2).
A plot of Controlmin versus test compound concentration was fitted to a 4-parameter logistic curve using a non-linear least squares regression method.

T1 sequence (P49327 whole entry): as the sequence (P49327 whole entry, the tested form may be a part) above

SMILES | inhibition at 10 µM [1] [%] | IC50 [1] [µM] | IC50 [2] [µM] | IC50 [3] [µM] | IC50 [4] [µM] | IC50 [5] [µM] | IC50 [6] [µM] | Human FASN pIC50 ([1]; hFASN enzyme full length, scintillation proximity assay, "~" = standard error of pIC50 larger than 0.5)
Cc1cc2cc(-c3ccc(C4=NC5(CC5)C(=O)N4CC4CN(C(=O)C5CC5)C4)c(C)c3)ccc2s1 [compound 391, 6-{[1-(Cyclopropylcarbonyl)azetidin-3-yl]methyl}-5-[2-methyl-4-(2-methyl-1-benzothiophen-5-yl)phenyl]-4,6-diazaspiro[2.4]hept-4-en-7-one] | 104 | 0.129 | > 10 | 1.17 | 1.7 | 0.724 | 0.389 | 
Cc1cc(C2=NC3(CC3)C(=O)N2CC2CN(C(=O)C3CC3)C2)ccc1-c1ccc2sccc2c1 [compound 392, 5-[4-(1-Benzothiophen-5-yl)-3-methylphenyl]-6-{[1-(cyclopropylcarbonyl)azetidin-3-yl]methyl}-4,6-diazaspiro[2.4]hept-4-en-7-one] | 91 | 0.245 | > 10 | 2.51 | ~1.7 | 1.62 | 0.871 | 
Cc1cc(-c2ccc3oc(C)c(C)c3c2)ccc1C1=NC2(CC2)C(=O)N1CC1CN(C(=O)C2CC2)C1 [compound 398, 6-{[1-(Cyclopropylcarbonyl)azetidin-3-yl]methyl}-5-[4-(2,3-dimethyl-1-benzofuran-5-yl)-2-methylphenyl]-4,6-diazaspiro[2.4]hept-4-en-7-one] | 102 | 0.263 | > 10 | ~2.29 | 2.34 | 1.74 | 0.955 | 
Cc1oc2ccc(-c3ccc(C4=NC5(CC5)C(=O)N4C[C@@H]4CCN(C(=O)C5CC5)C4)cc3F)cc2c1C [compound 399, 6-{[(3R)-1-(Cyclopropylcarbonyl)pyrrolidin-3-yl]methyl}-5-[4-(2,3-dimethyl-1-benzofuran-5-yl)-3-fluorophenyl]-4,6-diazaspiro[2.4]hept-4-en-7-one] | 99 | 0.363 | > 6.17 | > 6.17 | > 3.02 | > 3.02 | 1.32 | 
Nc1cccc(-c2ccc(C3=NC4(CC4)C(=O)N3C[C@@H]3CCN(C(=O)C4CC4)C3)cc2)n1 [compound 400, 5-[4-(6-Aminopyridin-2-yl)phenyl]-6-{[(3R)-1-(cyclopropylcarbonyl)pyrrolidin-3-yl]methyl}-4,6-diazaspiro[2.4]hept-4-en-7-one] | 101 | 0.195 | > 6.17 | 0.229 | 1.2 | 0.214 | 0.479 | 
O=C(C1CC1)N1CC[C@@H](CN2C(=O)C3(CC3)N=C2c2ccc(-c3ccc4[nH]ccc4c3)nc2)C1 [compound 402, 6-{[(3R)-1-(Cyclopropylcarbonyl)pyrrolidin-3-yl]methyl}-5-[6-(1H-indol-5-yl)pyridin-3-yl]-4,6-diazaspiro[2.4]hept-4-en-7-one] | 102 | 0.138 | > 10 | 0.174 | 1.74 | 0.174 | 0.302 | 
Cn1cc(-c2ccc(-c3ccc(C4=NC5(CC5)C(=O)N4C[C@H]4CCN(C(=O)C5CC5)C4)cc3)cc2)cn1 [compound 411, 6-{[(3S)-1-(Cyclopropylcarbonyl)pyrrolidin-3-yl]methyl}-5-[4′-(1-methyl-1H-pyrazol-4-yl)biphenyl-4-yl]-4,6-diazaspiro[2.4]hept-4-en-7-one] | 100 | 0.158 | > 10 | 0.126 | 0.525 | 0.162 | 0.427 | 
O=C(C1CC1)N1CC[C@H](CN2C(=O)C3(CC3)N=C2c2ccc(-c3ccc(-c4cccc(Cl)c4)cc3)cc2)C1 [compound 412, 5-(3″-Chloro-1,1′:4′,1″-terphenyl-4-yl)-6-{[(3S)-1-(cyclopropylcarbonyl)pyrrolidin-3-yl]methyl}-4,6-diazaspiro[2.4]hept-4-en-7-one] | 96 | 0.324 | > 10 | 1.62 | 0.457 | 0.575 | 0.427 | 
Cc1ccc(-c2ccc(-c3ccc(C4=NC5(CC5)C(=O)N4C[C@H]4CCN(C(=O)C5CC5)C4)cc3)cc2)cc1 [compound 413, 6-{[(3S)-1-(Cyclopropylcarbonyl)pyrrolidin-3-yl]methyl}-5-(4″-methyl-1,1′:4′,1″-terphenyl-4-yl)-4,6-diazaspiro[2.4]hept-4-en-7-one] | 91 | 0.302 | 7.24 | ~0.676 | 0.447 | 0.479 | 0.891 | 
O=C(C1CC1)N1CC[C@@H](CN2C(=O)C3(CC3)N=C2c2ccc(-c3ccc4[nH]ncc4c3)c(F)c2)C1 [compound 414, 6-{[(3R)-1-(Cyclopropylcarbonyl)pyrrolidin-3-yl]methyl}-5-[3-fluoro-4-(1H-indazol-5-yl)phenyl]-4,6-diazaspiro[2.4]hept-4-en-7-one] | 101 | 0.135 | > 10 | ~0.2 | 1.15 | 0.178 | 0.295 | 
Cc1sc2ccc(-c3ccc(C4=NC5(CC5)C(=O)N4CC4CN(C(=O)C5CC5)C4)cc3)cc2c1C [compound 418, 6-{[1-(Cyclopropylcarbonyl)azetidin-3-yl]methyl}-5-[4-(2,3-dimethyl-1-benzothiophen-5-yl)phenyl]-4,6-diazaspiro[2.4]hept-4-en-7-one] | 103 | 0.151 | > 10 | ~2.14 | ~2.51 | 1.58 | 0.302 | 
O=C(C1CC1)N1CC[C@@H](CN2C(=O)C3(CC3)N=C2c2ccc(-c3ccc4occc4c3)nc2)C1 [compound 420, 5-[6-(1-Benzofuran-5-yl)pyridin-3-yl]-6-{[(3R)-1-(cyclopropylcarbonyl)pyrrolidin-3-yl]methyl}-4,6-diazaspiro[2.4]hept-4-en-7-one] | 92 | 0.49 | > 10 | ~2.09 | 6.46 | 1.66 | 0.977 | 
Cn1ncc2cc(-c3ccc(C4=NC5(CC5)C(=O)N4C[C@@H]4CCN(C(=O)C5CC5)C4)cn3)ccc21 [compound 421, 6-{[(3R)-1-(Cyclopropylcarbonyl)pyrrolidin-3-yl]methyl}-5-[6-(1-methyl-1H-indazol-5-yl)pyridin-3-yl]-4,6-diazaspiro[2.4]hept-4-en-7-one] | 94 |  | > 10 | 1.15 | 1.29 | 1.05 | 1.78 | 6.34
O=C(C1CC1)N1CC[C@@H](CN2C(=O)C3(CC3)N=C2c2ccc(-c3ccc4[nH]ccc4c3)s2)C1 [compound 423, 6-{[(3R)-1-(Cyclopropylcarbonyl)pyrrolidin-3-yl]methyl}-5-[5-(1H-indol-5-yl)thiophen-2-yl]-4,6-diazaspiro[2.4]hept-4-en-7-one] | 90 | 0.316 | > 10 | 1.29 | 2.57 | 1.35 | 0.55 | 
O=C(C1CC1)N1CC[C@@H](CN2C(=O)C3(CC3)N=C2c2ccc(-c3ccc4sccc4c3)s2)C1 [compound 425, 5-[5-(1-Benzothiophen-5-yl)thiophen-2-yl]-6-{[(3R)-1-(cyclopropylcarbonyl)pyrrolidin-3-yl]methyl}-4,6-diazaspiro[2.4]hept-4-en-7-one] | 93 | 0.275 | > 10 | ~6.92 | 3.16 | 2.19 | 0.646 | 
O=C(C1CC1)N1CC[C@@H](CN2C(=O)C3(CC3)N=C2c2ccc(-c3ccc4c(c3)N=CC4)s2)C1 [compound 426, 6-{[(3R)-1-(Cyclopropylcarbonyl)pyrrolidin-3-yl]methyl}-5-[5-(3H-indol-6-yl)thiophen-2-yl]-4,6-diazaspiro[2.4]hept-4-en-7-one] | 94 | 0.347 | > 10 | 2.34 | 2.34 | 1.74 | 0.708 | 
O=C(C1CC1)N1CC[C@@H](CN2C(=O)C3(CC3)N=C2c2ccc(-c3cccc4[nH]ncc34)s2)C1 [compound 427, 6-{[(3R)-1-(Cyclopropylcarbonyl)pyrrolidin-3-yl]methyl}-5-[5-(1H-indazol-4-yl)thiophen-2-yl]-4,6-diazaspiro[2.4]hept-4-en-7-one] | 91 | 0.417 | > 10 | 0.832 | 2.63 | 0.851 | 1.12 | 
